From patent publication US20130123326A1, “ALLOSTERIC BINDING COMPOUNDS” (REGION MIDTJYLLAND, priority 2009, published 2013)

What was measured:
hSERT [1] = target: T1, hSERT (Homo sapiens, UniProt P31645); assay: Dissociation assay with [3H]-citalopram and hSERT membrane preparations; assay type: binding
Protocol: Dulbecco's modified Eagle's medium, fetal bovine serum, trypsin, and penicillin/streptomycin were purchased from Invitrogen. Cell culture flasks were from NUNC. MicroScint-20 scintillation mixture was from Packard. [^3H]-Citalopram (85 Ci/mmol) was a gift from H. Lundbeck A/S (Valby, Denmark). Fugene-6 transfection reagent was from Roche Molecular Biochemicals. All chemicals are commercially available. Stock solutions of the allosteric ligands were prepared as 100 mM in EtOH.
The pcDNA3 plasmid vector containing the hSERT gene was used for transfection.
17.5 μl Fugene-6 (Roche Molecular Biochemicals) were mixed with 280 μl Dulbecco's modified Eagle's medium, and incubated at room temperature for 5 minutes. 10 μg of hSERT plasmid were added and the mixture was further incubated at least 15 minutes. […] The cells were plated at 35% confluency in a 150 mm dish, and grown at 37° C. for 64 h. Prior to harvesting the dish was rinsed in PBS. Cells were harvested with a cell scraper in buffer 1 (50 mM Tris-base, 150 mM NaCl, 20 mM EDTA, pH 7.4). After centrifugation (3000 g at 4° C. for 10 mins), cells were suspended and homogenized with an IKA Ultra-Turrax from Rose Scientific Ltd (Edmonton, Alberta, Canada) for 20 s in buffer 1. Membranes were pelleted by ultracentrifugation (12 000 g at 4° C. for 15 min) and homogenization was repeated in buffer 1. Finally, after ultracentrifugation (12000 g, 4° C., 15 min) membranes were resuspended in 1 ml buffer 3 (50 mM Tris-base, 120 mM NaCl, 5 mM KCl, pH 7.4) and stored at −80° C.
Dissociation Assay with [^3H]-Citalopram and Membrane Preparations.
SERT-[^3H]-citalopram complex was formed by incubating hSERT membrane preparation and radioligand in buffer 3 during a 60 min incubation at 4° C. Radioligand was present at a concentration 10 times the Kd value. The time kinetic of dissociation was followed by adding 10 μL complex solution to 250 μL buffer 3 in 96-well plates and incubating subsequently for increasing time intervals at RT. Reactions were terminated by filtration through GF/C glass-fibre filters (Unifilter, Perkin Elmer Life Sciences), preincubated with 40 μl 0.5% polyethyleneimine, using a Pachard Bell cell harvester, and subsequently washed three times with water. Filters were soaked in 40 μl Microscint 20 scintillation liquid (Pachard Bell). Bound radioactivity was determined by direct counting of plates using a Packard Bell microplate scintillation counter. Dissociation curves were obtained by plotting residual binding vs. time of dissociation.
The concentrations of allosteric compound in the dissociation buffer range from 400-0.2 μM.
The relative off-rate is expressed as the off-rate of the radioligand at a given concentration of allosteric compound, normalized to the off-rate of radioligand in the absence of allosteric compound.
The maximum stabilization factor is defined as the estimated upper plateau of the sigmoidal response curve, and describes how many folds the off-rate of bound radioligand from SERT can be attenuated in the presence of increasing concentrations of allosteric compound in the dissociation buffer.

hSERT [2] = target: T1, hSERT; assay: 5-HT uptake inhibition assay: allo-ligand potentiating effect on uptake inhibition by S-citalopram; assay type: cell-based; details: [3H]5-HT uptake, hSERT-transfected HEK-293-MSR cells; allosteric ligand in the 600 nM range
Protocol: Cell lines expressing the serotonin transporter constitute the most popular in vitro screening system for classical antidepressants, which will inhibit the transporter in uptake of serotonin. The inhibitory potency of the allosteric ligands is determined and expressed as an IC50 value in that a lowering of the IC50 values, when the concentration of the allosteric ligands increases, indicates an add-on inhibitory effect due to the presence of the allosteric ligand.
Transfection of HEK-293-MSR Cell Cultures
For transfections, 0.2 μg of pcDNA3 plasmid vector containing a hSERT cDNA insert and 0.4 μl of Fugene6 (Roche) were used per cm2 of plating area. Plasmid and Fugene6 were mixed with DMEM according to the manufacturer's recommendations. HEK-293-MSR cells were treated with trypsin, suspended in growth media and added to the Plasmid/Fugene6 mixture. Transfected cells were dispensed into white 96-well growth plates (Corning) or 150 mm cell culture discs at 60-80% confluence.
5-HT Uptake Inhibition Assays
Uptake assays were performed 40-50 hours after transfection. […] Cells were lysed in 50 μl MicroScint-20 (Packard), and the radiolabeled serotonin accumulated in the cells was quantified in a Packard TopCounter NXT microplate scintillation counter. Exact [^3H]5-HT reaction concentrations were determined in a Packard TRI-CARB® Liquid scintillation analyzer. […]

T1 sequence (P31645 whole entry): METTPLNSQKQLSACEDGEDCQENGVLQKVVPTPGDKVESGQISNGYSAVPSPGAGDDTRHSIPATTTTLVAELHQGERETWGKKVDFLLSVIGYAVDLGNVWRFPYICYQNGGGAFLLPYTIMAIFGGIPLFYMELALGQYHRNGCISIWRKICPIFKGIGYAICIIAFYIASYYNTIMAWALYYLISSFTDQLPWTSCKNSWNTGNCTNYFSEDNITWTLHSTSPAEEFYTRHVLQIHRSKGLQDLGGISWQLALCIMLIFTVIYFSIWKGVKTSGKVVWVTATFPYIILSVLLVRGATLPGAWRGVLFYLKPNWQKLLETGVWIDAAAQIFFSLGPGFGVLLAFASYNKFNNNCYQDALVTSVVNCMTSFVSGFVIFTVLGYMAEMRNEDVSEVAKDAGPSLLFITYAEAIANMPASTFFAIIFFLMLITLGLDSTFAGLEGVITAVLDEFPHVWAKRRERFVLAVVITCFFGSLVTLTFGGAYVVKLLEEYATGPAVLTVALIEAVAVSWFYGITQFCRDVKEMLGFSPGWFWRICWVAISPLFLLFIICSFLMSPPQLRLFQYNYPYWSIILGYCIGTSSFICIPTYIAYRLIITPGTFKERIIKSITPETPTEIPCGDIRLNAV

N#CCSc1cccc2ccccc12 [Example 36, (Naphthalen-1-Ylsulfanyl)-Acetonitrile]
EC50 (hSERT [1]; concentration of allosteric compound inducing 50% attenuation of the off-rate of the radioligand from SERT, 10 μM fluoxetine in dissociation buffer, read-out: EC50): 700 nM | Max. Stability (maximum stabilization factor) (hSERT [1]; estimated upper plateau of sigmoidal response curve: how many folds the off-rate of bound radioligand from SERT can be attenuated, N/A = No activity): 27 | reduction of S-citalopram IC50 values (add-on effect) (hSERT [2]): up to 2 fold
